Here are results for 4 compounds from PMC10413841, “Exploration of Thiourea-Based Scaffolds for the Construction of Bacterial Ureases Inhibitors” (ACS Omega, 2023).

The term Ki denotes a measure of affinity in units of concentration, obtained from inhibition or displacement. One may read the IC50 as the concentration that gives 50% inhibition.

“And” between values parts separate entries of the source, which are not always exact repeats. Equal entries are not always repeated. Where two headings read alike, the source gives them in different places.

In assay [1] the target is T1, native S. pasteurii CCM 2056 urease (Sporosarcina pasteurii, UniProt P41020).
T1 construct: The S. pasteurii CCM 2056 cells were used as the source of a native enzyme; endogenous in cells; host or cells: S. pasteurii CCM 2056 culture; endogenous enzyme purified in house from the sonicated cell extract by five-step chromatography
More on the design: method as in PMID 25699141. Conditions: previously reported; read-out: Ki against purified enzyme from S. pasteurii; cited from earlier work.

Assay [2] concerns live cells of P. mirabilis PCM 543. More on the design: method as in PMID 27550502. Conditions: 1 mM acetohydroxamate; remaining ureolysis in P. mirabilis PCM 543; cited from earlier work.
The target of assay [3] is purified enzyme from P. mirabilis. More on the design: method as in PMID 25699141. Conditions: previously reported; read-out: Ki against purified enzyme from P. mirabilis; cited from earlier work.
The target in assay [4] is T1, native S. pasteurii CCM 2056 urease. Put plainly: Inhibition of purified native urease, indophenol (Berthelot) ammonia assay. It is filed as biochemical. Conditions: for Ki: purified native enzyme, EI dissociation constant from Lineweaver-Burke plots, urea up to 30 mM, 3 mM phosphate buffer, read-out: Ki [μM] (± SD). On the procedure: The kinetic properties of the compounds as potential urease inhibitors were evaluated against native enzyme purified from S. pasteurii CCM 2056 culture. Residual enzyme activity was expressed as ammonia release from urea followed quantitively using the Berthelot reaction. All of the studied structures were reversibly inhibitory, with dissociation constants ranging from submicromolar to moderate micromolar concentrations (Table 1). The α quantifier between the enzyme-substrate-inhibitor complex (ESI) dissociation constant Ki* and the EI dissociation constant Ki [drawing 1] was calculated to determine the influence of substrate binding on the stability of the EI complex. […] For modeled compounds 19, 16, and 29, the values of α were 152.01, 38.04, and 14.52, respectively. […] For comparison, the α value of compound 52 was 1.37.
The S. pasteurii CCM 2056 cells were used as the source of a native enzyme. The culture medium was made of 20 g/L yeast extract. One day after the inoculation, the medium was further supplemented with 1 mM NiCl2 and 1% urea. After 2 more days of growth, the cells were centrifuged and disintegrated via sonication. Enzyme purification from the cell extract was conducted using a five-step chromatographic method as previously reported.[50]
Inhibition of the purified urease was measured using the indophenol assay for ammonia concentration.[65] The kinetic assays in 3 mM phosphate buffer contained the purified enzyme, studied thiourea analogues, and a range of urea concentrations up to saturating 30 mM. Total progress curves were analyzed with the addition of the enzyme at the reaction start. Assays were terminated with the sequential addition of 100 μL of M1 ([…] sodium nitroprusside, 0.53 M phenol) and M2 (0.625 M sodium hydroxide, 47.1 mM sodium hypochlorite) solution to 50 μL of reaction mixture sample. After 15 min of color development, absorbance at 650 nm was measured. […] In order to verify the inhibition mode as well as calculate the dissociation constant for EI complex, Lineweaver–Burke curves were plotted (1/v = f(1/[S])). For noncompetitive or mixed inhibition mode, Ki was calculated from plots of the LB curves slope as a function of inhibitor concentration.

The test system of assay [5] is live cells of S. pasteurii CCM 2056. Put plainly: Whole-cell ureolysis: ammonia release from urea in live cells. In kind it is cell-based, Sporosarcina pasteurii. Conditions: Sporosarcina pasteurii, CCM2056; urea hydrolysis in live cells; 30 mM urea; 10 mM PBS; read-out: IC50 [μM] (± SD) S. pasteurii cells.
Assay [6] has as its system live cells of P. mirabilis PCM 543. The assay is described as above. It is filed as cell-based, Proteus mirabilis. Conditions: Proteus mirabilis, urea hydrolysis in live cells; 30 mM urea; 10 mM PBS; read-out: IC50 [μM] (± SD) P. mirabilis cells. On the procedure:
Proteus mirabilis PCM 543 was cultured as described for S. pasteurii except for nickel ions—0.3 mM NiCl2 was used in the growth medium. Cells harvested by centrifugation were resuspended in 10 mM PBS and used for urease activity measurements. Assays were conducted in 10 mM PBS containing 30 mM urea and different concentrations of urease inhibitors and ammonia quantified by indophenol assay.

T1 sequence (P41022 whole entry): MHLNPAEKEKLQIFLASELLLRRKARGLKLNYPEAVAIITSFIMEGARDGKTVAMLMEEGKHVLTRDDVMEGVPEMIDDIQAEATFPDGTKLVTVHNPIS
T1 sequence (P41021 whole entry, further chain): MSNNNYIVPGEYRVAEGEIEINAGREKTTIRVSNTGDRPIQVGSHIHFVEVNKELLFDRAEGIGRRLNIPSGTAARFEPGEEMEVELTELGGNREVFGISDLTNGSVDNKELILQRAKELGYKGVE
T1 sequence (P41020 whole entry): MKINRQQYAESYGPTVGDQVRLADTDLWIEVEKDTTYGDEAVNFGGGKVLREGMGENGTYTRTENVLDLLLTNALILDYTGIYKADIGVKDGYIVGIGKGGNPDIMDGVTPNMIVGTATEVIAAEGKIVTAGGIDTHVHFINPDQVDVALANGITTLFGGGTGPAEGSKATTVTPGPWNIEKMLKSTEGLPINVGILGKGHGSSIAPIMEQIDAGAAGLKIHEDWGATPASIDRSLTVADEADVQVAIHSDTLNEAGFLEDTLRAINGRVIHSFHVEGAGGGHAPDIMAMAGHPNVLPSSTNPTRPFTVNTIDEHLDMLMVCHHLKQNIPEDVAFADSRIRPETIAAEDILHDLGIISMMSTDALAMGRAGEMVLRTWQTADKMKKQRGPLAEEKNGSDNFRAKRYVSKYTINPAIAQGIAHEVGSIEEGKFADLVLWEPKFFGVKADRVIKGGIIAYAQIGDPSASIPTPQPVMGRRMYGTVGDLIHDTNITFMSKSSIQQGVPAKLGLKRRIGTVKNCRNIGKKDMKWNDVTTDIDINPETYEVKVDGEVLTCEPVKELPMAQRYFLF

Turning to `CC(=O)NO` [acetohydroxamate], the inhibition constant Ki is 3.3 ± 0.4 µM in assay [1] and 5.7 ± 0.4 µM in assay [3]. In addition, the “whole-cell ureolysis reduced to” value in assay [2] is 42 ± 6%.
On to `NC(=S)N/N=C/c1ccc(Cl)cc1` [Compound 17, (E)-2-(4-Chlorobenzylidene)hydrazine-1-carbothioamide], for which the Ki in assay [4] worked out at 8.15 ± 0.908 µM. The values for the half-inhibitory concentration (IC50) in assay [5] and in assay [6] were 16.4 ± 0.94 µM and 454 ± 26.3 µM, respectively.
Take `NC(=S)N/N=C(\C=C\c1ccc(F)cc1)c1ccccc1` [Compound 24, (E)-2-((E)-3-(4-Fluorophenyl)-1-phenylallylidene)hydrazine-1-carbothioamide]: the Ki in assay [4] was 24.2 ± 1.52 µM. The IC50 in assay [5] turned out to be 36.2 ± 2.84 µM; in assay [6], 510 ± 17.8 µM.
As for `Cc1ccc(/C=N/NC(N)=S)cc1` [Compound 16, (E)-2-(4-Methylbenzylidene)hydrazine-1-carbothioamide], the “α quantifier between ESI dissociation constant Ki* and EI dissociation constant Ki” value in assay [4] (purified S. pasteurii urease) is listed as 38.04. The Ki in assay [4] is 0.99 µM and 0.998 µM. For the same compound, the 50% inhibitory concentration (IC50) in assay [5] stood at 9.92 ± 1.31 µM; in assay [6], 282 ± 32.4 µM.
